IC50 and inhibition data for nine compounds are collected here from patent publication US20100331315A1, “RHODANINES AND RELATED HETEROCYCLES AS KINASE INHIBITORS” (priority 2009, published 2010).

One assay concerns the target T1, recombinant human CK2 (Homo sapiens, UniProt P68400).
T1 construct: purchased Upstate
Briefly: CK2 assay (cell-free, 33P-ATP filter plate). Format: biochemical. As for the experimental part: Modulatory activity of compounds described herein was assessed in vitro in cell-free CK2 assays by the following method.
Test compounds in aqueous solution were added at a volume of 10 microliters, to a reaction mixture comprising 10 microliters Assay Dilution Buffer (ADB; 20 mM MOPS, pH 7.2, 25 mM beta-glycerolphosphate, 5 mM EGTA, 1 mM sodium orthovanadate and 1 mM dithiothreitol), 10 microliters of substrate peptide (RRRDDDSDDD, dissolved in ADB at a concentration of 1 mM), 10 microliters of recombinant human CK2 (25 ng dissolved in ADB; Upstate). Reactions were initiated by the addition of 10 microliters of ATP Solution (90% 75 mM MgCl2, 75 micromolar ATP dissolved in ADB; 10% [γ-^33P]ATP (stock 1 mCi/100 μl; 3000 Ci/mmol (Perkin Elmer) and maintained for 10 minutes at 30 degrees C. The reactions were quenched with 100 microliters of 0.75% phosphoric acid, then transferred to and filtered through a phosphocellulose filter plate (Millipore). After washing each well 5 times with 0.75% phosphoric acid, the plate was dried under vacuum for 5 min and, following the addition of 15 ul of scintillation fluid to each well, the residual radioactivity was measured using a Wallac luminescence counter.

Another assay addresses recombinant PIM-1 (Homo sapiens, UniProt P11309). Briefly: PIM-1 assay (33P-ATP filter plate). In kind it is biochemical. Particulars: read-out: PIM1: IC50. As for the experimental part:
The following procedure was used to assay the PIM-1 kinase activity of compounds of the invention. Other methods for assaying PIM-1 and other PIM kinases, as well as methods to assay for activity against the various kinases are known in the art.
In a final reaction volume of 50 ul, recombinant PIM-1 (1 ng) was incubated with 12 mM MOPS pH 7.0, 0.4 mM EDTA, glycerol 1%, brij 35 0.002%, 2-mercaptoethanol 0.02%, BSA 0.2 mg/ml, 100 uM KKRNRTLTK, 10 mM MgAcetate, 15 uM ATP, [γ-^33P-ATP] (specific activity approx. 500 cpm/pmol), DMSO 4% and test inhibitor compound at the required concentration. The reaction was initiated by the addition of the Magnesium ATP mixture. After 40 min incubation at 23° C., the reactions were quenched by the addition of 100 ul 0.75% Phosphoric acid, and the labeled peptide collected by filtration through a phosphocellulose filter plate. The plate was washed 4 times with 0.075% phosphoric acid (100 ul per well) and then, after the addition of scintillation fluid (20 ul per well), the counts were measured by a scintillation counter.

Another assay addresses recombinant human PIM2 (Homo sapiens, UniProt Q9P1W9). Briefly: PIM-2 assay (33P-ATP filter plate). Format: biochemical. Conditions: for inhibition at 2.5 µM: Table 6, read-out: PIM2: % inh @ 2.5 uM. As for the experimental part: PIM-2 Assay Method: Test compounds dissolved and diluted in DMSO (2 μl) were added to a reaction mixture comprising 10 μl of 5× Reaction Buffer (40 mM MOPS pH 7.0, 5 mM EDTA), 10 μl of recombinant human PIM2 solution (4 ng PIM-2 dissolved in dilution buffer (20 mM MOPS pH 7.0; EDTA 1 mM; 5% Glycerol; 0.01% Brij 35; […]; […] 2-mercaptoethanol; 1 mg/ml BSA)) and 8 ul of water. Reactions were initiated by the addition of 10 ul of ATP Solution (49% (15 mM MgCl2; 75 uM ATP) 1% ([γ-^33P]ATP: Stock 1 mCi/1000; 3000Ci/mmol (Perkin Elmer)) and 10 ul of substrate peptide solution (RSRSSYPAGT, dissolved in water at a concentration of 1 mM), Reactions were maintained for 10 min at 30° C. The reactions were quenched with 100 ul of 0.75% Phosphoric acid, then transferred to and filtered through a Phosphocellulose filter plate (Millipore, MSPH-N6B-50). After washing each well 4 times with 0.75% Phosphoric acid, scintillation fluid (20 uL) was added to each well and the residual radioactivity was measured using a Wallac luminescence counter.

For the next assay, the system named is K-562. Briefly: Alamar Blue cell proliferation assay, K-562. Format: cell-based. Conditions: Homo sapiens, K562, K-562, Table 1, read-out: AB: K-562 IC50. The protocol: (§1) A representative cell-proliferation assay protocol using Alamar Blue dye (stored at 4° C., use 20 ul per well) is described hereafter.
(§2) a. Split and trypsinize cells.
(§3) b. Count cells using hemocytometer.
(§4) c. Plate 4,000-5,000 cells per well in 100 μl of medium and seed into a 96-well plate according to the following plate layout. Add cell culture medium only to wells B10 to B12. Wells B1 to B9 have cells but no compound added.
(§5) d. Add 100 μl of 2× drug dilution to each well in a concentration shown in the plate layout above. At the same time, add 100 μl of media into the control wells (wells B10 to B12). Total volume is 200 μl/well.
(§6) e. Incubate four (4) days at 37° C., 5% CO2 in a humidified incubator.
(§7) f. Add 20 μl Alamar Blue reagent to each well.
(§8) g. Incubate for four (4) hours at 37° C., 5% CO2 in a humidified incubator.
(§9) h. Record fluorescence at an excitation wavelength of 544 nm and emission wavelength of 590 nm using a microplate reader.
(§10) In the assays, cells are cultured with a test compound for approximately four days, the dye is then added to the cells and fluorescence of […] dye is detected after approximately four hours. Different types of cells can be utilized in the assays (e.g., HCT-116 human colorectal carcinoma cells, PC-3 human prostatic cancer cells and MiaPaca human pancreatic carcinoma cells).

The subject of a further assay is MV-4-11. Briefly: Alamar Blue cell proliferation assay, MV-4-11. Format: cell-based. Conditions: Homo sapiens, MV4-11, MV-4-11, Table 1, read-out: AB: MV-4-11 IC50. The protocol: as §1, §2, §3, §4, §5, §6, §7, §8, §9, §10
A further assay deals with MDAMB231. Briefly: Alamar Blue cell proliferation assay, MDAMB231. Particulars: Homo sapiens, MDA-MB-231, MDAMB231, Table 1, read-out: AB: MDAMB231 IC50. Format: cell-based. The protocol:
as §1, §2, §3, §4, §5, §6, §7, §8, §9, §10

The subject of assay [1] is MiaPaca human pancreatic carcinoma cells. Briefly: Alamar Blue cell proliferation assay, MiaPaCa. Format: cell-based. Particulars: MIA PaCa-2, Table 1, read-out: AB: MiaPaCa IC50. As for the experimental part: as §1, §2, §3, §4, §5, §6, §7, §8, §9, §10
For assay [2], the system named is PC-3 human prostatic cancer cells. Briefly: Alamar Blue cell proliferation assay, PC3. In kind it is cell-based. Conditions: PC-3, PC3, Table 1, read-out: AB: PC3. As for the experimental part:
as §1, §2, §3, §4, §5, §6, §7, §8, §9, §10
Background: The colour change of resazurin is a common sign of viable cells or microbes.

The subject of another assay is BxPC3. Briefly: Alamar Blue cell proliferation assay, BxPC3. In kind it is cell-based. Conditions: Homo sapiens, BXPC-3, BxPC3, Table 6, read-out: AB: BxPC3 IC50. The protocol: as §1, §2, §3, §4, §5, §6, §7, §8, §9, §10
For the next assay, the system named is MDAMB453. Briefly: Alamar Blue cell proliferation assay, MDAMB453. In kind it is cell-based. Conditions: Homo sapiens, MDA-MB-453, MDAMB453, Table 6, read-out: AB: MDAMB453 IC50. As for the experimental part: as §1, §2, §3, §4, §5, §6, §7, §8, §9, §10
A further assay concerns SUM-149PT. Briefly: Alamar Blue cell proliferation assay, SUM-149PT. Format: cell-based. Conditions: Homo sapiens, SUM149PT, Table 6, read-out: AB: SUM-149PT IC50. As for the experimental part:
as §1, §2, §3, §4, §5, §6, §7, §8, §9, §10

Read-outs that look alike come from different tables or passages of the source.

Sequence of recombinant PIM-1 (P11309 whole entry): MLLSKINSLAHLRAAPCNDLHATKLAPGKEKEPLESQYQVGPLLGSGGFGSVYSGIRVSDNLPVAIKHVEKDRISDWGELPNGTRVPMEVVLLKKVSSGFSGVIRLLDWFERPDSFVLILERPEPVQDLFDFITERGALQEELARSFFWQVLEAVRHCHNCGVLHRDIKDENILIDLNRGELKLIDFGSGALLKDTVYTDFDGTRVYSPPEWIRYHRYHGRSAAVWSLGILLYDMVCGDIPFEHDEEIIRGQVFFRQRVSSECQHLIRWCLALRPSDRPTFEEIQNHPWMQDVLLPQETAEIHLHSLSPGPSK
Sequence of recombinant human PIM2 (Q9P1W9 whole entry): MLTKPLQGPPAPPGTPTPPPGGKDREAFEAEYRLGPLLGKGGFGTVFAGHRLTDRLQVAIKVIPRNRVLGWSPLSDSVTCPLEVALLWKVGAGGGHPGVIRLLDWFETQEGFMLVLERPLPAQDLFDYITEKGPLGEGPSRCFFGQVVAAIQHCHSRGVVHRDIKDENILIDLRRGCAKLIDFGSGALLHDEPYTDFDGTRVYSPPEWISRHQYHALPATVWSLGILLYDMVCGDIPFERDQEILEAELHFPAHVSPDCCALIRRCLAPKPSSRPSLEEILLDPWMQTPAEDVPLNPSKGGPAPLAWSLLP
T1 sequence (P68400 whole entry): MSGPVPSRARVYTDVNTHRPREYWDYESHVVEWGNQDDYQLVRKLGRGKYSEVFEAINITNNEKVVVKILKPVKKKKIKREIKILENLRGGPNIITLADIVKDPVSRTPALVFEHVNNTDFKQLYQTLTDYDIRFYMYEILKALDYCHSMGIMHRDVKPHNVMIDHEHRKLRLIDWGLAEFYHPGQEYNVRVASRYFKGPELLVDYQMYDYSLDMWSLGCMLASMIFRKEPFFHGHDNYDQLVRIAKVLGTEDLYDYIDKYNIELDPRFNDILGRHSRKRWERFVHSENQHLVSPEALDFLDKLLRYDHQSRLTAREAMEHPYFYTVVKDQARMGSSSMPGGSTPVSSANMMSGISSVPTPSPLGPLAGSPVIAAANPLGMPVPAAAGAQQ
T1 sequence (P67870 whole entry partner): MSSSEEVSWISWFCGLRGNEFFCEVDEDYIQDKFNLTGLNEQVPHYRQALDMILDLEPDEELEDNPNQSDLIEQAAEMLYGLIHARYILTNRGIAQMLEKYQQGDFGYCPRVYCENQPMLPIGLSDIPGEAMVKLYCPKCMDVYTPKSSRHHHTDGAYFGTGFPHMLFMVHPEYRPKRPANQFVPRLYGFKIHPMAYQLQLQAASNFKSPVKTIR

As for `CN1CCCN(c2cncc(-c3ccc(/C=C4/SC(=O)NC4=O)c(F)c3)n2)CC1`, the IC50 at recombinant human CK2 (Table 5) was above 5000 nM; on recombinant PIM-1 (Table 5), 1180 nM; at recombinant human PIM2 (Table 5) it was above 2500 nM.

As to `O=C1NC(=S)S/C1=C\c1ccc(-c2cccc(C(=O)NCCN3CCCC3)c2)o1`, the IC50 at recombinant PIM-1 (Table 1) is 74 nM; at recombinant human PIM2 (Table 1), 704 nM; in the assay with K-562 it was above 10000 nM; in the assay with MV-4-11, above 10000 nM; with MDAMB231, above 10000 nM; in assay [1], above 10000 nM. Also, the IC50 in assay [2] is above 30000 nM.

For the compound `COc1ccc(/C=C2\SC(=O)NC2=O)cc1-c1cncc(N2CCCNCC2)n1`, the IC50 on recombinant human CK2 (Table 6) was determined as 472 nM. The inhibition at 2.5 µM at recombinant human PIM2 was 98.5%.

On to `O=C1NC(=S)S/C1=C\c1ccc(-c2cccc(C(=O)N3CC[C@@H](F)C3)c2)o1`, for which the IC50 on recombinant human CK2 (Table 1) was 26 nM; at recombinant PIM-1 (Table 1), 40 nM; with K-562, above 10000 nM; with MV-4-11, above 10000 nM; in the assay on MDAMB231 it was above 10000 nM; in assay [1], above 10000 nM. The IC50 in assay [2] is above 30000 nM.

`NC(=O)c1cccc(-c2ccc(/C=C3\SC(=S)NC3=O)o2)c1`: the IC50 at recombinant human CK2 (Table 1) was 4 nM; on recombinant PIM-1 (Table 1), 4 nM; in the assay with K-562, above 10000 nM; in the assay on MV-4-11, above 10000 nM; in the assay on MDAMB231 it was above 10000 nM; in assay [1], above 10000 nM. For the same compound, in [2], the IC50 was above 10000 nM.

As to `CN1CCCN(c2cncc(-c3cccc(/C=C4\SC(=O)N(C)C4=O)c3)n2)CC1`, the IC50 is above 5000 nM on recombinant human CK2 (Table 5), 440 nM on recombinant PIM-1 (Table 5) and 2350 nM on recombinant human PIM2 (Table 5).

Take `O=C1NC(=O)/C(=C/c2cc(-c3cncc(N4CCCNCC4)n3)cs2)S1`: the IC50 was 4.39 nM on recombinant human CK2 (Table 6), above 30000 nM with BxPC3, 27700 nM in the assay on MDAMB453 and 25200 nM with SUM-149PT. In addition, the inhibition at 2.5 µM at recombinant human PIM2 worked out at 99.9%.

On to `CN(C)NC(=O)c1cccc(-c2ccc(/C=C3\SC(=S)NC3=O)o2)c1`, for which the IC50 was 94 nM on recombinant human CK2 (Table 1); 36 nM on recombinant PIM-1 (Table 1); above 10000 nM in the assay with K-562; above 10000 nM in the assay on MV-4-11; above 10000 nM in the assay with MDAMB231; above 10000 nM in assay [1]. Moreover, the IC50 in assay [2] is above 30000 nM.

Regarding `CN1CCCN(c2cncc(-c3ccc(/C=C4\SC(=S)NC4=O)c(F)c3)n2)CC1`, the IC50 at recombinant human CK2 (Table 5) came to 320 nM; on recombinant PIM-1 (Table 5), 50 nM; at recombinant human PIM2 (Table 5), 190 nM.
